Patent publication US9828339B2, “Biphenyl derivatives and methods for preparing same” (DONG-A ST CO., LTD, priority 2013, dated 2017)

Biological target: human muscarinic M3 receptor (Homo sapiens (Human), UniProt P20309)
Assay: Binding assay on human muscarinic M3 receptor ([3H]-methyl scopolamine displacement)
Conditions: membranes overexpressing human M3 receptor, Ki from IC50 by Cheng-Prusoff, read-out: Binding Affinity to M3 Receptor, Ki
Experimental: [Experimental Example 1] Binding Assay on Human Muscarinic M3 Receptor
Cell membrane proteins (Perkin Elmer) wherein human muscarinic M3 receptor was overexpressed, [^3H]-methyl scopolamine and test compounds in various concentration were cultured in 0.2 ml of Tris-HCl buffer at 25° C. for 120 minutes. The same was filtered under suction through glass fiber filter (Whatman GF/B), and then the filter was washed 5 times with 1 ml of Tris-HCl buffer. The radioactivity of [^3H]-methyl scopolamine adsorbed on the filter was measured by a liquid scintillation counter. Non-specific binding was evaluated under existence of 5 μM of atropine. Affinity of the compound of the present invention to muscarinic M3 receptor was calculated as the dissociation constant (Ki), which can be calculated from concentration (IC50) of test compounds inhibiting 50% of binding of [^3H]-methyl scopolamine (i.e. labeled ligand) according to Cheng and Prusoff [Cheng and Prusoff, Biochem. Pharmacol., 22, 3099, 1973].

human muscarinic M3 receptor, sequence (P20309 whole entry): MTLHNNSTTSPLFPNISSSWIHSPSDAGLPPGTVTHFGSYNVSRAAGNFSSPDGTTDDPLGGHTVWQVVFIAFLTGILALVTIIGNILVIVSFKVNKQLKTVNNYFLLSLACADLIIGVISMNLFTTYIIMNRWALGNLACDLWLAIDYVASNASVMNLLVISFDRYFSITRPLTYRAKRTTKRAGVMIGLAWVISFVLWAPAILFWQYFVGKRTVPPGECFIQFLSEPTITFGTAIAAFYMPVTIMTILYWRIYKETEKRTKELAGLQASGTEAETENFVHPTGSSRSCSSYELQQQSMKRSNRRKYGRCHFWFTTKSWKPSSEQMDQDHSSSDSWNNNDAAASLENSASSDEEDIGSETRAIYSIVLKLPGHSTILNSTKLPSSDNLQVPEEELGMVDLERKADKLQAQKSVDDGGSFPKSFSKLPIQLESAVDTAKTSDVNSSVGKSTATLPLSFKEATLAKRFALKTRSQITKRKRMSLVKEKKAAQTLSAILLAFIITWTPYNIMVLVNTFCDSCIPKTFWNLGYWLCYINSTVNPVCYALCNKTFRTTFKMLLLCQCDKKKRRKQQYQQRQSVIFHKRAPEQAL

SMILES | Ki
CN1CCCC1CCOC(=O)Nc1ccc(F)cc1-c1cc(F)cc(F)c1 (centres unmarked) [Example 20, 2-(1-methylpyrrolidin-2-yl)ethyl(3′,5,5′-trifluoro-[1,1′-biphenyl]-2-yl)carbamate] | 20.7 nM
CCc1cccc(-c2cc(F)ccc2NC(=O)OCCC2CCCN2C)c1 (centres unmarked) [Example 44, 2-(1-methylpyrrolidin-2-yl)ethyl(3′-ethyl-5-fluoro-[1,1′-biphenyl]-2-yl)carbamate] | 95.5 nM
Cc1cc(C)cc(-c2cc(F)ccc2NC(=O)OC[C@@H]2CCN(C)C2)c1 [Example 193, (R)-(1-methylpyrrolidin-3-yl)methyl(5-fluoro-3′,5′-dimethyl-[1,1′-biphenyl]-2-yl)carbamate] | 45.8 nM
CN1CC[C@@H](COC(=O)Nc2cc(F)c(F)cc2-c2cccc(Cl)c2)C1 [Example 182, (R)-(1-methylpyrrolidin-3-yl)methyl (3′-chloro-4,5-difluoro-[1,1′-biphenyl]-2-yl)carbamate] | > 1000 nM
Cc1cc(C)cc(-c2ccccc2NC(=O)OC[C@@H]2CCN(C)C2)c1 [Example 191, (R)-(1-methylpyrrolidin-3-yl)-methyl (3′,5′-dimethyl-[1,1′-biphenyl]-2-yl)carbamate] | 30.8 nM
CN1CCCC1CCOC(=O)Nc1ccccc1-c1ccc(C#N)cc1 (centres unmarked) [Example 28, 2-(1-methylpyrrolidin-2-yl)ethyl(4′-cyano-[1,1′-biphenyl]-2-yl)carbamate] | 845 nM
CN1CCCC1CCOC(=O)Nc1ccccc1-c1ccc(N)c(Cl)c1 (centres unmarked) [Example 39, 2-(1-methylpyrrolidin-2-yl)ethyl(4′-amino-3′-chloro-[1,1′-biphenyl]-2-yl)carbamate] | 28 nM
CN1CCC[C@H]1COC(=O)Nc1ccccc1-c1cccc(F)c1F [Example 189, (S)-(1-methylpyrrolidin-2-yl)methyl(2′,3′-difluoro-[1,1′-biphenyl]-2-yl)carbamate] | 65.6 nM
CN1CC[C@@H](COC(=O)Nc2ccccc2-c2cccc(N)c2)C1 [Example 154, (R)-(1-methylpyrrolidin-3-yl)methyl(3′-amino-[1,1′-biphenyl]-2-yl)carbamate] | 16.7 nM
O=C(Nc1ccc(F)cc1-c1cc(F)cc(F)c1)OC[C@@H]1CCNC1 [Example 84, (R)-pyrrolidin-3-ylmethyl (3′,5,5′-trifluoro-[1,1′-biphenyl]-2-yl)carbamate] | 34.9 nM
CN1CC[C@@H](COC(=O)Nc2ccccc2-c2cccc(F)c2)C1 [Example 113, (R)-(1-methylpyrrolidin-3-yl)-methyl (3′-fluoro-[1,1′-biphenyl]-2-yl)carbamate] | 1.92 nM
CN1CC[C@H](COC(=O)Nc2ccc(F)cc2-c2cc(F)cc(F)c2)C1 [Example 96, (S)-(1-methylpyrrolidin-3-yl)methyl (3′,5,5′-trifluoro-[1,1′-biphenyl]-2-yl)carbamate] | 17.6 nM
CN1CCCC1CCOC(=O)Nc1ccc(F)cc1-c1cccc(F)c1 (centres unmarked) [Example 18, 2-(1-methylpyrrolidin-2-yl)ethyl(3′,5-difluoro-[1,1′-biphenyl]-2-yl)carbamate] | 6.98 nM
COc1cc(OC)cc(-c2cc(F)ccc2NC(=O)OC[C@@H]2CCCN2C)c1 [Example 221, (S)-(1-methylpyrrolidin-2-yl)methyl(5-fluoro-3′,5′-dimethoxy-[1,1′-biphenyl]-2-yl)carbamate] | > 1000 nM
CN1CCCC1CCOC(=O)Nc1ccccc1-c1ccc([N+](=O)[O-])cc1 (centres unmarked) [Example 11, 2-(1-methylpyrrolidin-2-yl)ethyl(4′-nitro-[1,1′-biphenyl]-2-yl)carbamate] | 467 nM
CN1CCCC1CCOC(=O)Nc1ccc(O)cc1-c1cc(Cl)cc(Cl)c1 (centres unmarked) [Example 76, 2-(1-methylpyrrolidin-2-yl)ethyl (3′,5′-dichloro-5-hydroxy-[1,1′-biphenyl]-2-yl)carbamate] | > 1000 nM
O=C(Nc1ccccc1-c1cc(F)cc(F)c1)OC[C@H]1CCNC1 [Example 81, (S)-pyrrolidin-3-ylmethyl-(3′,5′-difluoro-[1,1′-biphenyl]-2-yl)carbamate] | 30.4 nM
